From the supplement of paper PMC4862054

How the values were obtained:
Conditions in all cases: incubation time: 72 h
BT-474 [1] = assay: normalised response (% of control), CellTiter-Glo; higher = more viable cells (100 = DMSO, 0 = benzethonium chloride kill control)
In short: (§1)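 Plates were normalised with 0.1 % DMSO as 100 and a positive kill control as 0. Breast cancer cell lines in 20 µl suspension had been seeded into 384-well plates with compound at 5 concentrations in 10-fold steps over a compound-specific 10,000-fold range, incubated 72 h, and read for CellTox Green fluorescence (485/520 nm) followed by CellTiter-Glo luminescence. Each value is the normalised signal at a single concentration.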

MDA-MB-468 [2] = assay: as above
In short: as §1

CAL-120 [3] = assay: as above
In short: as §1

MDA-MB-436 [4] = assay: as above
In short: as §1

CAL-51 [5] = assay: as above
In short: as §1

Hs578T [6] = assay: as above
In short: as §1

BT-549 [7] = assay: as above
In short: as §1

HDQ-P1 [8] = assay: as above
In short: as §1

MDA-MB-453 [9] = assay: as above
In short: as §1

HCC1599 [10] = assay: as above
In short: as §1

DU-4475 [11] = assay: as above
In short: as §1

CAL-85-1 [12] = assay: as above
In short: as §1

HCC1937 [13] = assay: as above
In short: as §1

CAL-148 [14] = assay: as above
In short: as §1

HCC1143 [15] = assay: as above
In short: as §1

SK-BR-3 = assay: as above
In short: as §1

MFM-223 [16] = assay: as above
In short: as §1

MCF-10A [17] = assay: as above
In short: as §1

MDA-MB-231 [18] = assay: as above
In short: as §1

BT-474 [19] = assay: normalised response (% of control), CellTox Green; higher = less cell death (100 = DMSO, 0 = benzethonium chloride kill control)
In short: as §1

MDA-MB-468 [20] = assay: as above
In short: as §1

CAL-120 [21] = assay: as above
In short: as §1

MDA-MB-436 [22] = assay: as above
In short: as §1

CAL-51 [23] = assay: as above
In short: as §1

Hs578T [24] = assay: as above
In short: as §1

BT-549 [25] = assay: as above
In short: as §1

HDQ-P1 [26] = assay: as above
In short: as §1

MDA-MB-453 [27] = assay: as above
In short: as §1

HCC1599 [28] = assay: as above
In short: as §1

DU-4475 [29] = assay: as above
In short: as §1

CAL-85-1 [30] = assay: as above
In short: as §1

HCC1937 [31] = assay: as above
In short: as §1

CAL-148 [32] = assay: as above
In short: as §1

HCC1143 [33] = assay: as above
In short: as §1

MFM-223 [34] = assay: as above
In short: as §1

MCF-10A [35] = assay: as above
In short: as §1

MDA-MB-231 [36] = assay: as above
In short: as §1

SMILES: CCC1=C[C@@H]2CN(C1)Cc1c([nH]c3ccccc13)[C@@](C(=O)OC)(c1cc3c(cc1OC)N(C)[C@H]1[C@@](O)(C(=O)OC)[C@H](OC(C)=O)[C@]4(CC)C=CCN5CC[C@]31[C@@H]54)C2 [Vinorelbine] (100 nM)
- normalised response (BT-474 [1]): 70.2%
- normalised response (MDA-MB-468 [2]): 21%
- normalised response (CAL-120 [3]): 58.1%
- normalised response (MDA-MB-436 [4]): 38.8%
- normalised response (CAL-51 [5]): 68.2%
- normalised response (Hs578T [6]): 48.1%
- normalised response (BT-549 [7]): 31.6%
- normalised response (HDQ-P1 [8]): 75.8%
- normalised response (MDA-MB-453 [9]): 59.7%
- normalised response (HCC1599 [10]): 62.8%
- normalised response (DU-4475 [11]): 91.7%
- normalised response (CAL-85-1 [12]): 31.1%
- normalised response (HCC1937 [13]): 71.4%
- normalised response (CAL-148 [14]): 42.8%
- normalised response (HCC1143 [15]): 45.6%
- normalised response (SK-BR-3): 10.4%
- normalised response (MFM-223 [16]): 59.8%
- normalised response (MCF-10A [17]): 59.5%
- normalised response (MDA-MB-231 [18]): 74.9%
- normalised response (BT-474 [19]): 76.3%
- normalised response (MDA-MB-468 [20]): 29.7%
- normalised response (CAL-120 [21]): 84.8%
- normalised response (MDA-MB-436 [22]): 90.9%
- normalised response (CAL-51 [23]): 28.6%
- normalised response (Hs578T [24]): 49.2%
- normalised response (BT-549 [25]): 80.3%
- normalised response (HDQ-P1 [26]): 93.5%
- normalised response (MDA-MB-453 [27]): 83.8%
- normalised response (HCC1599 [28]): 90.6%
- normalised response (DU-4475 [29]): 101%
- normalised response (CAL-85-1 [30]): 51.3%
- normalised response (HCC1937 [31]): 88.4%
- normalised response (CAL-148 [32]): 67.3%
- normalised response (HCC1143 [33]): 85.7%
- normalised response (MFM-223 [34]): 59.8%
- normalised response (MCF-10A [35]): -12.8%
- normalised response (MDA-MB-231 [36]): 71.5%

SMILES: C[C@@H](Oc1cc(-c2cnn(C3CCNCC3)c2)cnc1N)c1c(Cl)ccc(F)c1Cl [Crizotinib] (10 nM)
- normalised response (BT-474 [1]): 102%
- normalised response (MDA-MB-468 [2]): 92.7%
- normalised response (CAL-120 [3]): 100%
- normalised response (MDA-MB-436 [4]): 99%
- normalised response (CAL-51 [5]): 57.6%
- normalised response (Hs578T [6]): 99.9%
- normalised response (BT-549 [7]): 96.7%
- normalised response (HDQ-P1 [8]): 93.6%
- normalised response (MDA-MB-453 [9]): 107%
- normalised response (HCC1599 [10]): 97.4%
- normalised response (DU-4475 [11]): 103%
- normalised response (CAL-85-1 [12]): 93.5%
- normalised response (HCC1937 [13]): 98.2%
- normalised response (CAL-148 [14]): 100%
- normalised response (HCC1143 [15]): 102%
- normalised response (SK-BR-3): 97.3%
- normalised response (MFM-223 [16]): 99.3%
- normalised response (MCF-10A [17]): 101%
- normalised response (MDA-MB-231 [18]): 104%
- normalised response (BT-474 [19]): 100%
- normalised response (MDA-MB-468 [20]): 230%
- normalised response (CAL-120 [21]): 107%
- normalised response (MDA-MB-436 [22]): 65.4%
- normalised response (CAL-51 [23]): 84.9%
- normalised response (Hs578T [24]): 105%
- normalised response (BT-549 [25]): 98.6%
- normalised response (HDQ-P1 [26]): 96.1%
- normalised response (MDA-MB-453 [27]): 105%
- normalised response (HCC1599 [28]): 109%
- normalised response (DU-4475 [29]): 103%
- normalised response (CAL-85-1 [30]): 89.3%
- normalised response (HCC1937 [31]): 90.5%
- normalised response (CAL-148 [32]): 102%
- normalised response (HCC1143 [33]): 89.3%
- normalised response (MFM-223 [34]): 105%
- normalised response (MCF-10A [35]): 80.3%
- normalised response (MDA-MB-231 [36]): 88.4%

SMILES: CC(=O)Nc1ccc(C(=O)Nc2ccccc2N)cc1 [Tacedinaline] (10 nM)
- normalised response (BT-474 [1]): 101%
- normalised response (MDA-MB-468 [2]): 104%
- normalised response (CAL-120 [3]): 102%
- normalised response (MDA-MB-436 [4]): 96.9%
- normalised response (CAL-51 [5]): 86.8%
- normalised response (Hs578T [6]): 90.1%
- normalised response (BT-549 [7]): 102%
- normalised response (HDQ-P1 [8]): 96.1%
- normalised response (MDA-MB-453 [9]): 107%
- normalised response (HCC1599 [10]): 104%
- normalised response (DU-4475 [11]): 99.6%
- normalised response (CAL-85-1 [12]): 103%
- normalised response (HCC1937 [13]): 94.8%
- normalised response (CAL-148 [14]): 105%
- normalised response (HCC1143 [15]): 99.7%
- normalised response (SK-BR-3): 95.3%
- normalised response (MFM-223 [16]): 101%
- normalised response (MCF-10A [17]): 101%
- normalised response (MDA-MB-231 [18]): 98.5%
- normalised response (BT-474 [19]): 96.6%
- normalised response (MDA-MB-468 [20]): 133%
- normalised response (CAL-120 [21]): 98.8%
- normalised response (MDA-MB-436 [22]): 80.4%
- normalised response (CAL-51 [23]): 83.3%
- normalised response (Hs578T [24]): 106%
- normalised response (BT-549 [25]): 85.9%
- normalised response (HDQ-P1 [26]): 104%
- normalised response (MDA-MB-453 [27]): 89.7%
- normalised response (HCC1599 [28]): 99.9%
- normalised response (DU-4475 [29]): 101%
- normalised response (CAL-85-1 [30]): 105%
- normalised response (HCC1937 [31]): 97.9%
- normalised response (CAL-148 [32]): 95%
- normalised response (HCC1143 [33]): 96.9%
- normalised response (MFM-223 [34]): 97.2%
- normalised response (MCF-10A [35]): 104%
- normalised response (MDA-MB-231 [36]): 108%

SMILES: O=C(O)c1ccc(-c2c[nH]c3ncc(-c4ccccc4)cc23)cc1C1CCCC1 (100 nM)
- normalised response (BT-474 [1]): 93.8%
- normalised response (MDA-MB-468 [2]): 90.6%
- normalised response (CAL-120 [3]): 97.9%
- normalised response (MDA-MB-436 [4]): 89.5%
- normalised response (CAL-51 [5]): 64.1%
- normalised response (Hs578T [6]): 103%
- normalised response (BT-549 [7]): 101%
- normalised response (HDQ-P1 [8]): 96.7%
- normalised response (MDA-MB-453 [9]): 97.6%
- normalised response (HCC1599 [10]): 89.5%
- normalised response (DU-4475 [11]): 98.2%
- normalised response (CAL-85-1 [12]): 101%
- normalised response (HCC1937 [13]): 97.1%
- normalised response (CAL-148 [14]): 88%
- normalised response (HCC1143 [15]): 102%
- normalised response (SK-BR-3): 97.2%
- normalised response (MFM-223 [16]): 96.2%
- normalised response (MCF-10A [17]): 93.1%
- normalised response (MDA-MB-231 [18]): 97.3%
- normalised response (BT-474 [19]): 99.5%
- normalised response (MDA-MB-468 [20]): 108%
- normalised response (CAL-120 [21]): 95%
- normalised response (MDA-MB-436 [22]): 95.5%
- normalised response (CAL-51 [23]): 84.6%
- normalised response (Hs578T [24]): 89.5%
- normalised response (BT-549 [25]): 83.6%
- normalised response (HDQ-P1 [26]): 99%
- normalised response (MDA-MB-453 [27]): 95.8%
- normalised response (HCC1599 [28]): 98.6%
- normalised response (DU-4475 [29]): 95.1%
- normalised response (CAL-85-1 [30]): 108%
- normalised response (HCC1937 [31]): 107%
- normalised response (CAL-148 [32]): 101%
- normalised response (HCC1143 [33]): 83.7%
- normalised response (MFM-223 [34]): 101%
- normalised response (MCF-10A [35]): 97.3%
- normalised response (MDA-MB-231 [36]): 89.3%
